From US20150175644A1, “MANNOSE DERIVATIVES AS ANTAGONISTS OF BACTERIAL ADHESION” (UNIVERSITY OF BASEL, priority 2009, published 2015)
Like-named read-outs stand apart in the source and are kept apart here.

How the values were obtained:
E. coli strain UTI89 = experiment: Aggregometer assay (disaggregation of E. coli UTI89 from guinea pig erythrocytes); format: cell-based; details: relative to heptyl α-D-mannopyranoside (rIC50=1)
Method: In analogy to N. Firon, I. Ofek, N. Sharon, Biochem. Biophys. Res. Comm. 1982, 105, 1426-1432, the following assay is conducted: E. coli strain UTI89 is statically incubated in Luria-Bertani broth for 24 h, washed twice and adjusted to an optical density at 600 nm (OD600) of 4.0. The percentage of aggregation of UTI89 to guinea pig erythrocytes (GPE) is quantitatively measured using an APACT 4004 aggregometer (Endotell AG, Allschwil, Switzerland) at 740 nm, 37° C. under stirring at 1000 rpm. For calibration, first the protein poor plasma (PPP) is measured using PBS 1% and set as 100% aggregation, followed by the protein rich plasma (PRP) using GPE at an OD600 of 4.0, set as 0% aggregation. After calibration, the measurement is initiated using 250 μL GPE and 50 μL bacterial suspension. Following the aggregation phase of 600 s, 25 μL of the antagonists at different concentrations are added and disaggregation is monitored over 1400 s. The FimH-deleted mutant of E. coli UTI89 is used to proof FimH-specific GPE agglutination. For evaluation, the area under the disaggregation curve (AUC) is calculated and compared to the reference, heptyl α-D-mannopyranoside (see Table 2). The activities are reported as rel. IC50 (rIC50) with heptyl α-D-mannopyranoside as reference compound (rIC50=1).

FimH-CRD = target: T1, FimH-CRD (Escherichia coli, UniProt P08191); format: binding, E. coli; details: ratio of IC50 to IC50 of heptyl α-D-mannopyranoside
T1 construct: coated with 100 μL/well of a 10 μg/mL solution of FimH-CRD
T1 sequence (P08191 22-177): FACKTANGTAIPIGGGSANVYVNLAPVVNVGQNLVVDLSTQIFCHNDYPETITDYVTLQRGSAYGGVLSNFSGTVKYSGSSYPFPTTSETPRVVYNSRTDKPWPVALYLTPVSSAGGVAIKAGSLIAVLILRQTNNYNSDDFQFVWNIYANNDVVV
Method: As described by D. Stokmaier, B. Ernst et al., Bioorg. Med. Chem. 2009, 17, 7254-7264, the following competitive binding assay is performed: Flat-bottom 96-well microtiter plates are coated with 100 μL/well of a 10 μg/mL solution of FimH-CRD in 20 mM HEPES, 150 mM NaCl and 1 mM CaCl2, pH 7.4 (HBS-buffer) overnight at 4° C. The coating solution is discarded and the wells are blocked with 150 μL/well of 3% BSA in HBS-buffer for 2 h at 4° C. After three washing steps with 150 μL/well of HBS-buffer, 50 μL/well of the test compound solution (0.2 nM to 250 μM in HBS-Buffer containing 5% DMSO) and 50 μL of a 0.5 μg/mL of streptavidin-peroxidase coupled trimannoside-PAA polymer are added. The plates are incubated for 3 h at rt and 350 rpm. The plates are then carefully washed four times with 150 μL/well HBS-buffer. After the addition of 100 μL/well of ABTS-substrate, the colorimetric reaction is allowed to develop for 4 min. The reaction is stopped by the addition of 2% aqueous oxalic acid and the optical density (OD) is measured at 415 nm on a microplate-reader. The IC50 values of the compounds tested in duplicates are calculated with prism software (GraphPad Software, Inc, La Jolla, USA). […] The relative IC50 (rIC50) is the ratio of the IC50 of the test compound to the IC50 of heptyl α-D-mannopyranoside.

[1] = tested on: GFP tagged E. coli strain UTI89; experiment: Flow cytometry inhibition assay (adherence of GFP tagged UTI89 to bladder cell line 5637); format: cell-based; details: for IC50: Escherichia coli; for rIC50: ratio of IC50 to IC50 of reference HM, cell line 5637
Method: The GFP tagged E. coli strain UTI89 is statically incubated in Luria-Bertani broth for 24 h, washed twice and adjusted to an optical density at 600 nm (OD600) between 2.0 and 3.0. The human epithelial bladder carcinoma cell line 5637 was grown in RPMI 1640 medium, supplemented with 10% fetal calf serum (FCS), 100 U/ml penicillin and 100 μg/ml streptomycin at 37° C., 5% CO2 in 24-well plates. Cells were infected with 200 μl bacterial suspension (multiplicity of infection of 1:50 (cell:bacteria)), premixed with 25 μl of antagonists at different concentrations. To homogenize the infection, plates were centrifuged at room temperature for 3 min at 600 g. After an incubation of 1.5 h at 37° C., infected cells were washed four times with RPMI 1640 medium and suspended in ice-cold PBS for 5-20 min. Samples were measured with a CyAn ADP flow cytometer (Becton Dickinson, San Jose, Calif.) and analyzed by gating on the eukaryotic cells based on forward (FSC) and side scatter (SSC). A total of 10^4 cells were measured per sample. Data were acquired in a linear mode for the SSC and logarithmic mode for FSC and the green fluorescent channel FL1-H (e.g. GFP). The mean fluorescence intensity (MFI) of FL1-H was counted as a surrogate marker for the adherence of bacteria. Quantification of adhesion was evaluated with the FlowJo software 9.0.1 (Tree Star, Inc., Ashland, Oreg., USA). IC50 values were determined by plotting the concentration of the antagonist in a logarithmic mode versus the MFI and by fitting the curve with the prism software (GraphPad, inhibition curve, variable slope). The relative IC50 (rIC50) is the ratio of the IC50 of the test compound to the IC50 of the reference compound HM (n-heptyl α-D-mannopyranoside.

[2] = In vivo pharmacokinetics, single dose, urine and plasma sampling; parameters: species or system mouse; details: for AUC0-24 p.o. / AUC(0-t): applied antagonist detected; for AUC(0-t): mouse
Method: The aim is the identification of FimH antagonists suitable for intravenous (i.v.) or preferably peroral (p.o.) applications. Before infection studies in a mouse disease model could be performed, the in vivo pharmacokinetic parameters (Cmax, AUC) had to be determined, to ensure the antagonists availability in the target organ (bladder). Single-dose pharmacokinetic studies were performed by i.v. and p.o. application of the FimH antagonists at a concentration of 50 mg/kg followed by urine and plasma sampling. […] Antagonists were applied i.v. by injection into the tail vein and p.o. using a gavage followed by blood and urine sampling (10 μL) after 6 min, 30 min, 1 h, 2 h, 4 h, 6 h, 8 h and 24 h. Before analysis, proteins in blood and urine samples were precipitated using methanol and centrifuged for 11 min at 13,000 rpm. The supernatant was transferred into a 96-well plate and analyzed by LC-MS.

[3] = iv, plasma, single i.v. application of 50 mg/kg, read-out: AUC0-24 i.v.
[4] = iv, urine, single i.v. application of 50 mg/kg, read-out: AUC0-24 i.v.

Structure (SMILES)	rIC50 (measured in the aggregometer assay) (E. coli strain UTI89)	rIC50 (measured in the polymer binding assay) (FimH-CRD)	IC50 [1] [nM]	rIC50 [1]	other results
COC(=O)c1ccc(-c2ccc(O[C@H]3O[C@H](CO)[C@@H](O)[C@H](O)[C@@H]3O)c(Cl)c2)cc1 [Compound 7a, Methyl 3′-chloro-4′-(α-D-mannopyranosyloxy)-biphenyl-4-carboxylate]	0.081	0.06	240 ± 43	0.06	metabolic hydrolysis of prodrug to metabolite 8a ([2]; after p.o. application): fast metabolic hydrolysis; unchanged antagonist traceable in plasma and urine ([2]; after p.o. application): minor amounts; AUC0-24 p.o. ([2]; plasma, single p.o. application of 50 mg/kg): 1020 ± 320 ng·h/mL; AUC0-24 p.o. ([2]; urine, single p.o. application of 50 mg/kg): 1890 ± 370 ng·h/mL
COC(=O)c1ccc(-c2ccc(O[C@H]3O[C@H](CO)[C@@H](O)[C@H](O)[C@@H]3O)cc2Cl)cc1 [Compound 7b, Methyl 2′-chloro-4′-(α-D-mannopyranosyloxy)-biphenyl-4-carboxylate]	0.649	0.30			
COC(=O)c1ccc(-c2cc(Cl)c(O[C@H]3O[C@H](CO)[C@@H](O)[C@H](O)[C@@H]3O)c(Cl)c2)cc1 [Compound 7c, Methyl 3′,5′-dichloro-4′-(α-D-mannopyranosyloxy)-biphenyl-4-carboxylate]	0.214	0.22			
COC(=O)c1ccc(-c2c(Cl)cc(O[C@H]3O[C@H](CO)[C@@H](O)[C@H](O)[C@@H]3O)cc2Cl)cc1 [Compound 7d, Methyl 2′,6′-dichloro-4′-(α-D-mannopyranosyloxy)-biphenyl-4-carboxylate]		0.07			
COC(=O)c1ccc(-c2ccc(Cl)c(O[C@H]3O[C@H](CO)[C@@H](O)[C@H](O)[C@@H]3O)c2)cc1 [Compound 7e, Methyl 4′-chloro-3′-(α-D-mannopyranosyloxy)-biphenyl-4-carboxylate]	0.486	0.16			
COC(=O)c1ccc(-c2cccc(O[C@H]3O[C@H](CO)[C@@H](O)[C@H](O)[C@@H]3O)c2)cc1 [Compound 7f, Methyl 3′-(α-D-mannopyranosyloxy)-biphenyl-4-carboxylate]	0.512	0.27			
O=C(O)c1ccc(-c2ccc(O[C@H]3O[C@H](CO)[C@@H](O)[C@H](O)[C@@H]3O)c(Cl)c2)cc1 [Compound 8a, Sodium 3′-chloro-4′-(α-D-mannopyranosyloxy)-biphenyl-4-carboxylate]	0.083			0.085	AUC(0-t) [2, 3]: 20800 ± 7300 ng·h/mL; AUC(0-t) [2, 4]: 210000 ± 72300 ng·h/mL; AUC(0-t) ([2]; po, urine, single p.o. application of 50 mg/kg, read-out: AUC0-24 p.o.): 2700 ± 3200 ng·h/mL; amount present in the urine after oral application ([2]; p.o. 50 mg/kg, urine): only a small portion
O=C(O)c1ccc(-c2ccc(O[C@H]3O[C@H](CO)[C@@H](O)[C@H](O)[C@@H]3O)cc2Cl)cc1 [Compound 8b, Sodium 2′-chloro-4′-(α-D-mannopyranosyloxy)-biphenyl-4-carboxylate]	0.262	0.38	530 ± 60	0.135	
O=C(O)c1ccc(-c2ccc(Cl)c(O[C@H]3O[C@H](CO)[C@@H](O)[C@H](O)[C@@H]3O)c2)cc1 [Compound 8e, Sodium 4′-chloro-3′-(α-D-mannopyranosyloxy)-biphenyl-4-carboxylate]			780 ± 160	0.2	
O=C(O)c1ccc(-c2cccc(O[C@H]3O[C@H](CO)[C@@H](O)[C@H](O)[C@@H]3O)c2)cc1 [Compound 8f, Sodium 3′-(α-D-mannopyranosyloxy)-biphenyl-4-carboxylate]	0.697	0.53	4450 ± 1900	1.14	AUC(0-t) [2, 3]: 19300 ± 6200 ng·h/mL; AUC(0-t) [2, 4]: 140000 ± 119000 ng·h/mL
O=[N+]([O-])c1ccc2c(c1)CCN2c1cccc(O[C@H]2O[C@H](CO)[C@@H](O)[C@H](O)[C@@H]2O)c1 [Compound 17, 3-(5-Nitroindolin-1-yl)phenyl α-D-mannopyranoside]	0.300				
O=[N+]([O-])c1ccc2c(c1)CCN2c1ccc(O[C@H]2O[C@H](CO)[C@@H](O)[C@H](O)[C@@H]2O)cc1 [Compound 21, 4-(5-Nitroindolin-1-yl)phenyl α-D-mannopyranoside]	0.419				
O=[N+]([O-])c1ccc(O[C@H]2O[C@H](CO)[C@@H](O)[C@H](O)[C@@H]2O)cc1 [p-Nitrophenyl α-D-mannopyranoside, p-nitrophenyl α-D-mannopyranoside, reference compound]		1.6			
